Measured values taken from patent US10457709B2, “Antimicrobial peptides, their variants and uses” (priority 2015, dated 2019).
Read-outs that look alike come from different tables or passages of the source.

Experiments:
Type in all cases: cell-based
[1] = test system: Acinetobacter baumannii clinical strains; parameters: Minimum inhibitory concentration: unit: μg/ml; conditions: microdilution, Muller Hinton broth-cation adjusted, 0.02% BSA, 0.2% acetic acid
Summary of the method: (§1)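 MIC recorded as the lowest peptide level, within 0.125–128 μg/ml, that left no visible growth after 20–24 h at 37° C. Inoculum was 5.0×10^5 cfu/ml of clinical isolates. Medium was potato dextrose broth for yeasts and Mueller Hinton broth for bacteria, in a broth microdilution format.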

[2] = test system: Enterobacter cloacae clinical strains; parameters: Minimum inhibitory concentration: unit: μg/ml; conditions: microdilution, Muller Hinton broth-cation adjusted, 0.02% BSA, 0.2% acetic acid
Summary of the method: as §1

[3] = test system: Proteus mirabilis clinical strains; parameters: Minimum inhibitory concentration: unit: μg/ml; conditions: microdilution, Muller Hinton broth-cation adjusted, 0.02% BSA, 0.2% acetic acid
Summary of the method: as §1

[4] = test system: Serratia marcescens clinical strains; parameters: Minimum inhibitory concentration: unit: μg/ml; conditions: microdilution, Muller Hinton broth-cation adjusted, 0.02% BSA, 0.2% acetic acid
Summary of the method: as §1

[5] = test system: Staphylococcus aureus clinical strains; parameters: Minimum inhibitory concentration: unit: μg/ml; conditions: microdilution, Muller Hinton broth-cation adjusted, 0.02% BSA, 0.2% acetic acid
Summary of the method: as §1

[6] = test system: Streptococcus pneumoniae clinical strains; parameters: Minimum inhibitory concentration: unit: μg/ml; conditions: microdilution, Muller Hinton broth-cation adjusted, 0.02% BSA, 0.2% acetic acid
Summary of the method: as §1

[7] = test system: Acinetobacter johnsonii clinical strains; conditions: Acinetobacter johnsonii clinical strain 1; microdilution, Muller Hinton broth-cation adjusted, 0.02% BSA, 0.2% acetic acid
Summary of the method: as §1

[8] = test system: Escherichia coli clinical strains; conditions: microdilution, Muller Hinton broth-cation adjusted, 0.02% BSA, 0.2% acetic acid
Summary of the method: as §1

[9] = test system: Klebsiella pneumoniae clinical strains; conditions: microdilution, Muller Hinton broth-cation adjusted, 0.02% BSA, 0.2% acetic acid
Summary of the method: as §1

[10] = test system: Pseudomonas aeruginosa clinical strains; conditions: microdilution, Muller Hinton broth-cation adjusted, 0.02% BSA, 0.2% acetic acid
Summary of the method: as §1

Gentamicin [reference compound] showed a Minimum inhibitory concentration ([1]; Acinetobacter baumannii clinical strain 1) of 0.5, a Minimum inhibitory concentration ([1]; Acinetobacter baumannii clinical strain 2) of 0.25 and a Minimum inhibitory concentration ([1]; Acinetobacter baumannii clinical strain 3) of 0.5. It also gave a Minimum inhibitory concentration ([1]; Acinetobacter baumannii clinical strain 4) of 0.5, a Minimum inhibitory concentration ([1]; Acinetobacter baumannii clinical strain 5) of 0.25 and a Minimum inhibitory concentration ([2]; Enterobacter cloacae clinical strain 1) of 0.25. The Minimum inhibitory concentration ([2]; Enterobacter cloacae clinical strain 2) was 0.25, the Minimum inhibitory concentration ([2]; Enterobacter cloacae clinical strain 3) was 0.25 and the Minimum inhibitory concentration ([2]; Enterobacter cloacae clinical strain 4) was 0.25. It also gave a Minimum inhibitory concentration ([2]; Enterobacter cloacae clinical strain 5) of 0.25, a Minimum inhibitory concentration ([3]; Proteus mirabilis clinical strain 1) of 2 and a Minimum inhibitory concentration ([3]; Proteus mirabilis clinical strain 2) of 2. The Minimum inhibitory concentration ([3]; Proteus mirabilis clinical strain 3) was >128, the Minimum inhibitory concentration ([3]; Proteus mirabilis clinical strain 4) was 8 and the Minimum inhibitory concentration ([3]; Proteus mirabilis clinical strain 5) was >128. It also gave a Minimum inhibitory concentration ([4]; Serratia marcescens clinical strain 1) of 1, a Minimum inhibitory concentration ([4]; Serratia marcescens clinical strain 2) of 2 and a Minimum inhibitory concentration ([4]; Serratia marcescens clinical strain 3) of 1. The Minimum inhibitory concentration ([4]; Serratia marcescens clinical strain 4) was 1, the Minimum inhibitory concentration ([4]; Serratia marcescens clinical strain 5) was 1 and the Minimum inhibitory concentration ([5]; Staphylococcus aureus clinical strain 1) was 0.5. For the same substance, the Minimum inhibitory concentration ([5]; Staphylococcus aureus clinical strain 2) was 0.5, the Minimum inhibitory concentration ([5]; Staphylococcus aureus clinical strain 3) was 0.5 and the Minimum inhibitory concentration ([5]; Staphylococcus aureus clinical strain 4) was 0.5. For the same substance, the Minimum inhibitory concentration ([5]; Staphylococcus aureus clinical strain 5) was 0.5, the Minimum inhibitory concentration ([6]; Streptococcus pneumoniae clinical strain 1) was 2 and the Minimum inhibitory concentration ([6]; Streptococcus pneumoniae clinical strain 2) was 2. For the same substance, the Minimum inhibitory concentration ([6]; Streptococcus pneumoniae clinical strain 3) was 2, the Minimum inhibitory concentration ([6]; Streptococcus pneumoniae clinical strain 4) was 2 and the Minimum inhibitory concentration ([6]; Streptococcus pneumoniae clinical strain 5) was 1. The Minimum inhibitory concentration [7] was 0.25, the Minimum inhibitory concentration ([8]; Escherichia coli clinical strain 1) was 0.5 and the Minimum inhibitory concentration ([8]; Escherichia coli clinical strain 2) was 0.5. For the same substance, the Minimum inhibitory concentration ([8]; Escherichia coli clinical strain 3) was 1, the Minimum inhibitory concentration ([8]; Escherichia coli clinical strain 4) was 1 and the Minimum inhibitory concentration ([8]; Escherichia coli clinical strain 5) was 1. The Minimum inhibitory concentration ([9]; Klebsiella pneumoniae clinical strain 1) was 2, the Minimum inhibitory concentration ([9]; Klebsiella pneumoniae clinical strain 2) was 0.25 and the Minimum inhibitory concentration ([9]; Klebsiella pneumoniae clinical strain 3) was 2. It also gave a Minimum inhibitory concentration ([9]; Klebsiella pneumoniae clinical strain 4) of 2, a Minimum inhibitory concentration ([9]; Klebsiella pneumoniae clinical strain 5) of 4 and a Minimum inhibitory concentration ([10]; Pseudomonas aeruginosa clinical strain 1) of 1. For the same substance, the Minimum inhibitory concentration ([10]; Pseudomonas aeruginosa clinical strain 2) was 0.5, the Minimum inhibitory concentration ([10]; Pseudomonas aeruginosa clinical strain 3) was 0.5 and the Minimum inhibitory concentration ([10]; Pseudomonas aeruginosa clinical strain 4) was 0.5. For the same substance, the Minimum inhibitory concentration ([10]; Pseudomonas aeruginosa clinical strain 5) was 0.25.
